Experimental data taken from patent publication US8192962B2, “Processes for detecting toxic substances” (Daikin Industries, Ltd., priority 2001, dated 2012).

Tested on: Mitochondria-located protein genes
Assay: DNA chip mRNA expression in yeast, mitochondria-located protein genes (Table 2)
Assay type: cell-based, Saccharomyces cerevisiae S288C
Details: cells incubated two hours with the chemical substance
Summary of the method: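 S. cerevisiae S288C grown at 25° C. in YPD to log phase, then exposed 2 h to a toxicant at a growth-inhibiting, non-lethal concentration; untreated cells as control. Poly(A) mRNA reverse-transcribed with Cy3-dUTP or Cy5-dUTP, hybridized >12 h at 65° C. to whole-genome yeast DNA chip; value = fluorescence ratio treated/untreated.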

Measured: The level of expressed mRNA in the presence of chemical substance/The level of expressed mRNA in the absence of chemical substance

Na2As [(1)]
1.0: yeast gene YBL030C | yeast gene YBL038W | yeast gene YBR251W | yeast gene YBR282W | yeast gene YCR046C | yeast gene YGR082W | yeast gene YGR244C | yeast gene YIL155C | yeast gene YJL096W | yeast gene YJL133W
1.3: yeast gene YDL181W | yeast gene YDR079W | yeast gene YDR298C | yeast gene YDR377W | yeast gene YEL024W | yeast gene YGR076C | yeast gene YHR008C
0.6: yeast gene YCL057W
1.4: yeast gene YDL198C | yeast gene YGR028W
1.8: yeast gene YDL067C | yeast gene YDR529C
1.7: yeast gene YGL191W
0.5: yeast gene YJR045C
0.9: yeast gene YBR003W | yeast gene YBR122C | yeast gene YGR062C | yeast gene YJL180C
0.8: yeast gene YBL099W | yeast gene YBR044C | yeast gene YBR221C | yeast gene YER178W | yeast gene YFL016C
1.6: yeast gene YDR258C
0.4: yeast gene YBL022C
1.2: yeast gene YBR185C
2.1: yeast gene YGR008C | yeast gene YJL166W
1.1: yeast gene YAL039C | yeast gene YBR091C | yeast gene YCR083W | yeast gene YDR231C | yeast gene YDR347W | yeast gene YEL039C | yeast gene YGL018C | yeast gene YGR174C | yeast gene YJL102W | yeast gene YJR077C
2.0: yeast gene YDR178W
1.5: yeast gene YGL187C
